Source: ChEMBL document CHEMBL3885881, “DrugMatrix”

Organism: Rattus norvegicus
Assay: DrugMatrix - Regimen: Daily Repeat
Assay type: toxicity, organism-based, Sprague-Dawley
Set-up: regimen Daily Repeat, gender Male, age 6-8 weeks
Conditions: in vivo, po, route oral GAVAGE, […]; for BASOPHIL / EOSINOPHIL / ERYTHROCYTE COUNT / HEMATOCRIT / HEMOGLOBIN / LEUKOCYTE COUNT / LYMPHOCYTE / MEAN CORPUSCULAR HEMOGLOBIN / MEAN CORPUSCULAR HEMOGLOBIN CONCENTRATION / MEAN CORPUSCULAR VOLUME / MONOCYTE / NEUTROPHIL / PLATELET COUNT / ABSOLUTE BASOPHIL / ABSOLUTE EOSINOPHIL / ABSOLUTE LYMPHOCYTE / ABSOLUTE MONOCYTE / ABSOLUTE SEGMENTED NEUTROPHIL / NUCLEATED RED BLOOD CELLS: tissue Blood; for ALANINE AMINOTRANSFERASE / ALBUMIN / ALKALINE PHOSPHATASE / ASPARTATE AMINOTRANSFERASE / BLOOD UREA NITROGEN / CHLORIDE / CHOLESTEROL / CREATINE PHOSPHOKINASE / CREATININE / GLUCOSE / PHOSPHORUS / POTASSIUM / SODIUM / TOTAL BILIRUBIN / TOTAL PROTEIN / CARBON DIOXIDE / LACTATE DEHYDROGENASE / LIPASE / URIC ACID: tissue Plasma
[1] = 0 mg/kg, 120 h, dose level Control, time 5 day
[2] = 0 mg/kg, dose level Control, time 28 day
[3] = 11 mg/kg, 72 h, dose level High, time 3 day
[4] = 11 mg/kg, 120 h, dose level High, time 5 day

## O=[N+]([O-])c1cc([As](=O)(O)O)ccc1O [ROXARSONE]
[1]
  BASOPHIL: 0.32%
  EOSINOPHIL: 0.58%
  ERYTHROCYTE COUNT: 7.26 x10E6/uL
  HEMATOCRIT: 46.94%
  HEMOGLOBIN: 14.9 G/DL
  LEUKOCYTE COUNT: 8.69 x10E3/uL
  LYMPHOCYTE: 81.52%
  MEAN CORPUSCULAR HEMOGLOBIN: 20.58 pg
  MEAN CORPUSCULAR HEMOGLOBIN CONCENTRATION: 31.8 G/DL
  MEAN CORPUSCULAR VOLUME: 64.68 fL
  MONOCYTE: 2.16%
  NEUTROPHIL: 13.88%
  PLATELET COUNT: 1531.2 x10E3/uL
  ALANINE AMINOTRANSFERASE: 33.2 u/L
  ALBUMIN: 3.74 G/DL
  ALKALINE PHOSPHATASE: 318 u/L
  ASPARTATE AMINOTRANSFERASE: 78.6 u/L
  BLOOD UREA NITROGEN: 6 mg/dL
  CHLORIDE: 108.4 MEQ/L
  CHOLESTEROL: 63 mg/dL
  CREATINE PHOSPHOKINASE: 251 u/L
  CREATININE: 0.18 mg/dL
  GLUCOSE: 125.6 mg/dL
  PHOSPHORUS: 12.06 mg/dL
  POTASSIUM: 5.92 MEQ/L
  SODIUM: 146.8 MEQ/L
  TOTAL BILIRUBIN: 0.16 mg/dL
  TOTAL PROTEIN: 6.06 G/DL
[2]
  BASOPHIL: 0.42%
  EOSINOPHIL: 0.58%
  ERYTHROCYTE COUNT: 8.06 x10E6/uL
  HEMATOCRIT: 48.44%
  HEMOGLOBIN: 16.34 G/DL
  LEUKOCYTE COUNT: 13.04 x10E3/uL
  LYMPHOCYTE: 85.12%
  MEAN CORPUSCULAR HEMOGLOBIN: 20.26 pg
  MEAN CORPUSCULAR HEMOGLOBIN CONCENTRATION: 33.74 G/DL
  MEAN CORPUSCULAR VOLUME: 60.1 fL
  MONOCYTE: 1.44%
  NEUTROPHIL: 11.28%
  PLATELET COUNT: 1226 x10E3/uL
  ALANINE AMINOTRANSFERASE: 28.6 u/L
  ALBUMIN: 3.94 G/DL
  ALKALINE PHOSPHATASE: 254.6 u/L
  ASPARTATE AMINOTRANSFERASE: 67.8 u/L
  BLOOD UREA NITROGEN: 10.4 mg/dL
  CHLORIDE: 104.6 MEQ/L
  CHOLESTEROL: 57.6 mg/dL
  CREATINE PHOSPHOKINASE: 224.8 u/L
  CREATININE: 0.4 mg/dL
  GLUCOSE: 140.6 mg/dL
  PHOSPHORUS: 10.66 mg/dL
  POTASSIUM: 6.58 MEQ/L
  SODIUM: 148.6 MEQ/L
  TOTAL BILIRUBIN: 0.24 mg/dL
  TOTAL PROTEIN: 6.64 G/DL
[3]
  ABSOLUTE BASOPHIL: 0 CELLS/uL
  ABSOLUTE EOSINOPHIL: 38.67 CELLS/uL
  ABSOLUTE LYMPHOCYTE: 12107.67 CELLS/uL
  ABSOLUTE MONOCYTE: 206 CELLS/uL
  ABSOLUTE SEGMENTED NEUTROPHIL: 1247.67 CELLS/uL
  BASOPHIL: 0%
  EOSINOPHIL: 0.33%
  ERYTHROCYTE COUNT: 6.03 x10E6/uL
  HEMATOCRIT: 38.2%
  HEMOGLOBIN: 14.6 G/DL
  LEUKOCYTE COUNT: 13.6 x10E3/uL
  LYMPHOCYTE: 89%
  MEAN CORPUSCULAR HEMOGLOBIN: 24.2 pg
  MEAN CORPUSCULAR HEMOGLOBIN CONCENTRATION: 38.2 G/DL
  MEAN CORPUSCULAR VOLUME: 63.27 fL
  MONOCYTE: 1.67%
  NEUTROPHIL: 9%
  NUCLEATED RED BLOOD CELLS: 0 /100WBC
  PLATELET COUNT: 1141 x10E3/uL
  ALANINE AMINOTRANSFERASE: 88 u/L
  ALBUMIN: 3.93 G/DL
  ALKALINE PHOSPHATASE: 483.33 u/L
  ASPARTATE AMINOTRANSFERASE: 108 u/L
  BLOOD UREA NITROGEN: 10.67 mg/dL
  CARBON DIOXIDE: 29.33 mmol/L
  CHLORIDE: 100.67 MEQ/L
  CHOLESTEROL: 66.67 mg/dL
  CREATINE PHOSPHOKINASE: 464.67 u/L
  CREATININE: 0.15 mg/dL
  GLUCOSE: 142.67 mg/dL
  LACTATE DEHYDROGENASE: 448 u/L
  LIPASE: 11.67 u/L
  PHOSPHORUS: 11.03 mg/dL
  POTASSIUM: 6.34 MEQ/L
  SODIUM: 143.37 MEQ/L
  TOTAL BILIRUBIN: 0.2 mg/dL
  TOTAL PROTEIN: 5.6 G/DL
  URIC ACID: 1.6 mg/dL
[4]
  ABSOLUTE BASOPHIL: 0 CELLS/uL
  ABSOLUTE EOSINOPHIL: 0 CELLS/uL
  ABSOLUTE LYMPHOCYTE: 14104 CELLS/uL
  ABSOLUTE MONOCYTE: 363 CELLS/uL
  ABSOLUTE SEGMENTED NEUTROPHIL: 1099.67 CELLS/uL
  NUCLEATED RED BLOOD CELLS: 0 /100WBC
  CARBON DIOXIDE: 29.67 mmol/L
  LACTATE DEHYDROGENASE: 358.67 u/L
  LIPASE: 11.33 u/L
  URIC ACID: 1.37 mg/dL
